Test results from BigSolDB 2.1.

CC(C)C[C@H](NC(=O)OCC1c2ccccc2-c2ccccc21)C(=O)O
solubility (mole fraction) (in acetone, 283.15 K): 0.0724 | solubility (mole fraction) (in acetone, 288.15 K): 0.0773 | solubility (mole fraction) (in acetone, 293.15 K): 0.0838 | solubility (mole fraction) (in acetone, 298.15 K): 0.0927 | solubility (mole fraction) (in acetone, 303.15 K): 0.101 | solubility (mole fraction) (in acetone, 308.15 K): 0.108 | solubility (mole fraction) (in acetone, 313.15 K): 0.117 | solubility (mole fraction) (in acetone, 318.15 K): 0.131 | solubility (mole fraction) (in acetone, 323.15 K): 0.142 | solubility (mole fraction) (in acetonitrile, 283.15 K): 0.00333 | solubility (mole fraction) (in acetonitrile, 288.15 K): 0.00382 | solubility (mole fraction) (in acetonitrile, 293.15 K): 0.0047 | solubility (mole fraction) (in acetonitrile, 298.15 K): 0.0055 | solubility (mole fraction) (in acetonitrile, 303.15 K): 0.00689 | solubility (mole fraction) (in acetonitrile, 308.15 K): 0.00832 | solubility (mole fraction) (in acetonitrile, 313.15 K): 0.0104 | solubility (mole fraction) (in acetonitrile, 318.15 K): 0.0126 | solubility (mole fraction) (in acetonitrile, 323.15 K): 0.0166 | solubility (mole fraction) (in ethanol, 283.15 K): 0.0256 | solubility (mole fraction) (in ethanol, 288.15 K): 0.0284 | solubility (mole fraction) (in ethanol, 293.15 K): 0.0324 | solubility (mole fraction) (in ethanol, 298.15 K): 0.0379 | solubility (mole fraction) (in ethanol, 303.15 K): 0.0443 | solubility (mole fraction) (in ethanol, 308.15 K): 0.0522 | solubility (mole fraction) (in ethanol, 313.15 K): 0.0614 | solubility (mole fraction) (in ethanol, 318.15 K): 0.0716 | solubility (mole fraction) (in ethanol, 323.15 K): 0.0854 | solubility (mole fraction) (in ethyl acetate, 283.15 K): 0.0468 | solubility (mole fraction) (in ethyl acetate, 288.15 K): 0.0496 | solubility (mole fraction) (in ethyl acetate, 293.15 K): 0.0536 | solubility (mole fraction) (in ethyl acetate, 298.15 K): 0.0607 | solubility (mole fraction) (in ethyl acetate, 303.15 K): 0.0692 | solubility (mole fraction) (in ethyl acetate, 308.15 K): 0.0782 | solubility (mole fraction) (in ethyl acetate, 313.15 K): 0.0862 | solubility (mole fraction) (in ethyl acetate, 318.15 K): 0.0961 | solubility (mole fraction) (in ethyl acetate, 323.15 K): 0.106 | solubility (mole fraction) (in isopropanol, 283.15 K): 0.0166 | solubility (mole fraction) (in isopropanol, 288.15 K): 0.0185 | solubility (mole fraction) (in isopropanol, 293.15 K): 0.0209 | solubility (mole fraction) (in isopropanol, 298.15 K): 0.0272 | solubility (mole fraction) (in isopropanol, 303.15 K): 0.0352 | solubility (mole fraction) (in isopropanol, 308.15 K): 0.0441 | solubility (mole fraction) (in isopropanol, 313.15 K): 0.0551 | solubility (mole fraction) (in isopropanol, 318.15 K): 0.0687 | solubility (mole fraction) (in isopropanol, 323.15 K): 0.0844 | solubility (mole fraction) (in methanol, 283.15 K): 0.0288 | solubility (mole fraction) (in methanol, 288.15 K): 0.033 | solubility (mole fraction) (in methanol, 293.15 K): 0.0384 | solubility (mole fraction) (in methanol, 298.15 K): 0.0455 | solubility (mole fraction) (in methanol, 303.15 K): 0.0543 | solubility (mole fraction) (in methanol, 308.15 K): 0.0621 | solubility (mole fraction) (in methanol, 313.15 K): 0.0771 | solubility (mole fraction) (in methanol, 318.15 K): 0.106 | solubility (mole fraction) (in methanol, 323.15 K): 0.137 | solubility (mole fraction) (in methyl acetate, 283.15 K): 0.0246 | solubility (mole fraction) (in methyl acetate, 288.15 K): 0.0279 | solubility (mole fraction) (in methyl acetate, 293.15 K): 0.0318 | solubility (mole fraction) (in methyl acetate, 298.15 K): 0.0372 | solubility (mole fraction) (in methyl acetate, 303.15 K): 0.0428 | solubility (mole fraction) (in methyl acetate, 308.15 K): 0.0487 | solubility (mole fraction) (in methyl acetate, 313.15 K): 0.0554 | solubility (mole fraction) (in methyl acetate, 318.15 K): 0.063 | solubility (mole fraction) (in methyl acetate, 323.15 K): 0.0711 | solubility (mole fraction) (in n-butanol, 283.15 K): 0.0198 | solubility (mole fraction) (in n-butanol, 288.15 K): 0.0216 | solubility (mole fraction) (in n-butanol, 293.15 K): 0.0258 | solubility (mole fraction) (in n-butanol, 298.15 K): 0.0295 | solubility (mole fraction) (in n-butanol, 303.15 K): 0.0354 | solubility (mole fraction) (in n-butanol, 308.15 K): 0.0456 | solubility (mole fraction) (in n-butanol, 313.15 K): 0.0565 | solubility (mole fraction) (in n-butanol, 318.15 K): 0.0687 | solubility (mole fraction) (in n-butanol, 323.15 K): 0.086 | solubility (mole fraction) (in n-propanol, 283.15 K): 0.0218 | solubility (mole fraction) (in n-propanol, 288.15 K): 0.0245 | solubility (mole fraction) (in n-propanol, 293.15 K): 0.0278 | solubility (mole fraction) (in n-propanol, 298.15 K): 0.0317 | solubility (mole fraction) (in n-propanol, 303.15 K): 0.0372 | solubility (mole fraction) (in n-propanol, 308.15 K): 0.0464 | solubility (mole fraction) (in n-propanol, 313.15 K): 0.0574 | solubility (mole fraction) (in n-propanol, 318.15 K): 0.0691 | solubility (mole fraction) (in n-propanol, 323.15 K): 0.0853
